Results on 19 compounds are retold here after patent US11053242B2, “[9,10-dimethoxy-3-(2-methylpropyl)-1H,2H,3H,4H,6H,7H,11BH-pyrido-[2,1-a]isoquinolin-2-yl]methanol and compounds, compositions and methods relating thereto” (Neurocrine Biosciences, Inc., priority 2015, dated 2021).

Bounds are passed on as bounds.

The target of this experiment is VMAT2 (human platelet homogenate) (Homo sapiens (Human), UniProt Q05940). The experiment is described as follows: Human VMAT2 Ki, slightly modified competition binding procedure (Table 11).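 Note: competition binding with 90 min incubation at 25 °C, after which filter-retained radioligand was measured by scintillation counting.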 The note with it: 10 nM 3H-dihydrotetrabenazine.
VMAT2 (human platelet homogenate), sequence (Q05940 whole entry): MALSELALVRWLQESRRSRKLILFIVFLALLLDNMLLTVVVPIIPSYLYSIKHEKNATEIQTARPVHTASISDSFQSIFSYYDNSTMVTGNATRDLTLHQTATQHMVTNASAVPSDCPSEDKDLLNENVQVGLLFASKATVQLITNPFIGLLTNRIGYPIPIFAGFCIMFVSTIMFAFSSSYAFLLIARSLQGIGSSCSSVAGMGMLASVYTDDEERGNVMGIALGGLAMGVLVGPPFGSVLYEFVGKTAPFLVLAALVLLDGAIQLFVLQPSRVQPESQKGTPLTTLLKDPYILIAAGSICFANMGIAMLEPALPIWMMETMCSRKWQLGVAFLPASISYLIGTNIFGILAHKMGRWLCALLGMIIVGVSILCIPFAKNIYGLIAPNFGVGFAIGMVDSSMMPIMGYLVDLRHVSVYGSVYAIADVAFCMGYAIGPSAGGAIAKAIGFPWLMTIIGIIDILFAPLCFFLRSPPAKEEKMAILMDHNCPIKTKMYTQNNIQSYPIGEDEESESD
Experimental: Following incubation at 25° C. for 90 minutes, bound radioligand was collected by rapid filtration onto GF/B glass fiber filters using a Unifilter-96 Harvester (PerkinElmer). Filter plates were pre-treated with 0.1% polyethylenimine and allowed to dry overnight, and following harvesting the filter plates were washed with 800 d VMAT2 binding buffer. Bound radioligand was quantified by scintillation counting using a Topcount NXT (PerkinElmer).
The Ki is the equilibrium dissociation constant of an inhibitor or competing ligand from its target. Consider `COc1cc2c(cc1OC)[C@H]1C[C@@H](COC(=O)C3CCCNC3)[C@H](CC(C)C)CN1CC2` (stereo partly drawn) [Compound 4-20, [(2R,3S,11bR)-9,10-dimethoxy-3-(2-methylpropyl)-1H,2H,3H,4H,6H,7H,11bH-pyrido[2,1-a]isoquinolin-2-yl]methyl piperidine-3-carboxylate], for which the Ki is below 10 nM.

For `COc1cc2c(cc1OC)[C@H]1C[C@@H](COC(=O)C3NCCc4ccccc43)[C@H](CC(C)C)CN1CC2` (stereo partly drawn) [Compound 4-21, [(2R,3S,11bR)-9,10-dimethoxy-3-(2-methylpropyl)-1H,2H,3H,4H,6H,7H,11bH-pyrido[2,1-a]isoquinolin-2-yl]methyl 1,2,3,4-tetrahydroisoquinoline-1-carboxylate], the Ki was in the range of 10 to 500 nM.

In turn, `COc1cc2c(cc1OC)[C@H]1C[C@@H](COC(=O)C[C@H]3CCCN3)[C@H](CC(C)C)CN1CC2` [Compound 4-23, [(2R,3S,11bR)-9,10-dimethoxy-3-(2-methylpropyl)-1H,2H,3H,4H,6H,7H,11bH-pyrido[2,1-a]isoquinolin-2-yl]methyl 2-[(2R)-pyrrolidin-2-yl]acetate] gave an inhibition constant (Ki) below 10 nM.

For `COc1cc2c(cc1OC)[C@H]1C[C@@H](COC(=O)CCN)[C@H](CC(C)C)CN1CC2` [Compound 4-24, [(2R,3S,11bR)-9,10-dimethoxy-3-(2-methylpropyl)-1H,2H,3H,4H,6H,7H,11bH-pyrido[2,1-a]isoquinolin-2-yl]methyl 3-aminopropanoate], the Ki was below 10 nM.

Take `COc1cc2c(cc1OC)[C@H]1C[C@@H](COC(=O)[C@H]3CCCC[C@@H]3N)[C@H](CC(C)C)CN1CC2` [Compound 4-25, [(2R,3S,11bR)-9,10-dimethoxy-3-(2-methylpropyl)-1H,2H,3H,4H,6H,7H,11bH-pyrido[2,1-a]isoquinolin-2-yl]methyl (1S,2S)-2-aminocyclohexane-1-carboxylate]: the Ki was 10 to 500 nM.

Compound `COc1cc2c(cc1OC)[C@H]1C[C@@H](COC(=O)C3CNCCO3)[C@H](CC(C)C)CN1CC2` (stereo partly drawn) [Compound 4-27, [(2R,3S,11bR)-9,10-dimethoxy-3-(2-methylpropyl)-1H,2H,3H,4H,6H,7H,11bH-pyrido[2,1-a]isoquinolin-2-yl]methyl morpholine-2-carboxylate] registered a Ki below 10 nM.

Take `COc1cc2c(cc1OC)[C@H]1C[C@@H](COC(=O)[C@H](N)c3ccc(C(F)(F)F)cc3)[C@H](CC(C)C)CN1CC2` [Compound 4-30, [(2R,3S,11bR)-9,10-dimethoxy-3-(2-methylpropyl)-1H,2H,3H,4H,6H,7H,11bH-pyrido[2,1-a]isoquinolin-2-yl]methyl (2R)-2-amino-2-[4-(trifluoromethyl)phenyl]acetate]: the inhibition constant (Ki) is 10 to 500 nM.

As for `COc1cc2c(cc1OC)[C@H]1C[C@@H](COC(=O)C3COCCN3)[C@H](CC(C)C)CN1CC2` (stereo partly drawn) [Compound 4-32, [(2R,3S,11bR)-9,10-dimethoxy-3-(2-methylpropyl)-1H,2H,3H,4H,6H,7H,11bH-pyrido[2,1-a]isoquinolin-2-yl]methyl morpholine-3-carboxylate], the Ki fell in the range of 10 to 500 nM.

Consider `COc1cc2c(cc1OC)[C@H]1C[C@@H](COC(=O)[C@@H](N)c3ccccc3)[C@H](CC(C)C)CN1CC2` [Compound 4-33, [(2R,3S,11bR)-9,10-dimethoxy-3-(2-methylpropyl)-1H,2H,3H,4H,6H,7H,11bH-pyrido[2,1-a]isoquinolin-2-yl]methyl (2S)-2-amino-2-phenylacetate], for which the Ki lay within 10 to 500 nM.

For `COc1cc2c(cc1OC)[C@H]1C[C@@H](COC(=O)CC3CCCCN3)[C@H](CC(C)C)CN1CC2` (stereo partly drawn) [Compound 4-34, [(2R,3S,11bR)-9,10-dimethoxy-3-(2-methylpropyl)-1H,2H,3H,4H,6H,7H,11bH-pyrido[2,1-a]isoquinolin-2-yl]methyl 2-(piperidin-2-yl)acetate], the Ki is below 10 nM.

On to `COc1cc2c(cc1OC)[C@H]1C[C@@H](COC(=O)C3(C)CCNCC3)[C@H](CC(C)C)CN1CC2` [Compound 4-35, [(2R,3S,11bR)-9,10-dimethoxy-3-(2-methylpropyl)-1H,2H,3H,4H,6H,7H,11bH-pyrido[2,1-a]isoquinolin-2-yl]methyl 4-methylpiperidine-4-carboxylate], for which the inhibition constant Ki is below 10 nM.

As for `COc1cc2c(cc1OC)[C@H]1C[C@@H](COC(=O)CCN3CCNCC3)[C@H](CC(C)C)CN1CC2` [Compound 4-37, [(2R,3S,11bR)-9,10-dimethoxy-3-(2-methylpropyl)-1H,2H,3H,4H,6H,7H,11bH-pyrido[2,1-a]isoquinolin-2-yl]methyl 3-(piperazin-1-yl)propanoate], the Ki was below 10 nM.

`COc1cc2c(cc1OC)[C@H]1C[C@@H](COC(=O)N3CCN(C)CC3)[C@H](CC(C)C)CN1CC2` [Compound 5-7, [(2R,3S,11bR)-9,10-dimethoxy-3-(2-methylpropyl)-1H,2H,3H,4H,6H,7H,11bH-pyrido[2,1-a]isoquinolin-2-yl]methyl 4-methylpiperazine-1-carboxylate] came in with an inhibition constant Ki above 500 nM.

On to `COc1cc2c(cc1OC)[C@H]1C[C@@H](COC(=O)N3CCN(S(C)(=O)=O)CC3)[C@H](CC(C)C)CN1CC2` [Compound 5-15, [(2R,3S,11bR)-9,10-dimethoxy-3-(2-methylpropyl)-1H,2H,3H,4H,6H,7H,11bH-pyrido[2,1-a]isoquinolin-2-yl]methyl 4-methanesulfonylpiperazine-1-carboxylate], for which the inhibition constant Ki lay in the range of 10 to 500 nM.

Compound `COc1cc2c(cc1OC)[C@H]1C[C@@H](COC(=O)N3CCN(C4CCCCC4)CC3)[C@H](CC(C)C)CN1CC2` [Compound 5-18, [(2R,3S,11bR)-9,10-dimethoxy-3-(2-methylpropyl)-1H,2H,3H,4H,6H,7H,11bH-pyrido[2,1-a]isoquinolin-2-yl]methyl 4-cyclohexylpiperazine-1-carboxylate] had an inhibition constant Ki below 10 nM.

Take `COc1cc2c(cc1OC)[C@H]1C[C@@H](COC(=O)N3CCNC(=O)C3C)[C@H](CC(C)C)CN1CC2` (stereo partly drawn) [Compound 5-21, [(2R,3S,11bR)-9,10-dimethoxy-3-(2-methylpropyl)-1H,2H,3H,4H,6H,7H,11bH-pyrido[2,1-a]isoquinolin-2-yl]methyl 2-methyl-3-oxopiperazine-1-carboxylate]: the Ki was below 10 nM.

With `COc1cc2c(cc1OC)[C@H]1C[C@@H](COC(=O)N3C[C@@H]4C[C@H]3CO4)[C@H](CC(C)C)CN1CC2` [Compound 5-24, [(2R,3S,11bR)-9,10-dimethoxy-3-(2-methylpropyl)-1H,2H,3H,4H,6H,7H,11bH-pyrido[2,1-a]isoquinolin-2-yl]methyl(1S,4S)-2-oxa-5-azabicyclo[2.2.1]heptane-5-carboxylate], the Ki is below 10 nM.

In the case of `COc1cc2c(cc1OC)[C@H]1C[C@@H](COC(=O)N(C)C(C)C(=O)O)[C@H](CC(C)C)CN1CC2` (stereo partly drawn) [Compound 5-28, 2-[({[(2R,3S,11bR)-9,10-dimethoxy-3-(2-methylpropyl)-1H,2H,3H,4H,6H,7H,11bH-pyrido[2,l-a]isoquinolin-2-yl]methoxy}carbonyl)(methyl)amino]propanoic acid], the Ki was above 500 nM.

`COc1cc2c(cc1OC)[C@H]1C[C@@H](COC(=O)N(C)C)[C@H](CC(C)C)CN1CC2` [Compound 5-29, [(2R,3S,11bR)-9,10-dimethoxy-3-(2-methylpropyl)-1H,2H,3H,4H,6H,7H,11bH-pyrido[2,1-a]isoquinolin-2-yl]methyl N,N-dimethylcarbamate] had a Ki of 10 to 500 nM.
